Experimental data taken from patent publication US8524750B2, “(Pyrazol-3-yl)-1,3,4-thiadiazol-2-amine and (pyrazol-3-yl)-1,3,4-thiazol-2-amine compounds” (Glaxo Group Limited, priority 2009, dated 2013).
Converted amounts (≈) assume the structure as drawn. Where two headings read alike, the source gives them in different places.

Tests used:
[1] = target: T1, Mycobacterium tuberculosis InhA (Mycobacterium tuberculosis, UniProt P9WGR1); assay: Mycobacterium tuberculosis InhA Inhibition Assay (Enzyme Assay); format: biochemical; conditions: 5 nM InhA, 50 μM DDCoA, 50 μM NADH, PIPES buffer pH 6.8, initial velocities of NADH consumption
T1 construct: made in house; host or cells: E. coli
Procedure: Mycobacterium tuberculosis InhA Inhibition Assay (Enzyme Assay)
InhA is able to reduce 2-trans enoyl-CoA esters with concomitant oxidation of NADH to NAD^+. The assay format is based on the kinetic detection of NADH consumption.
Assay for InhA inhibition is carried out with mycobacterium recombinant protein expressed and purified form E. coli. Standard assay conditions for the determination of kinetic constants and inhibitors activity use 5 nM of InhA, 50 μM of Dodecenoyl-CoA synthesized and purified as described by Quernard et al (DDCoA) and 50 μM of NADH as substrates, and it is carried out in 30 mM PIPES buffer pH 6.8, containing 0.05% of BSA. […] Triclosan is used as positive control in every experiment. One μl of compounds is added to the wells containing 25 μl of the DDCoA+NADH mix, the reaction is started by adding 50 μl of the enzyme solution. Fluorescence from NADH is followed at room temperature during 20 minutes in a fluorescent plate reader (excitation at 340 nm; emission at 480 nm). IC50 values are determined using initial velocities of NADH consumption.
Quernard A, Sacchettini J C, Dessen A, et al. Enzymatic characterization of the target for isoniazid in Mycobacterium tuberculosis. Biochemistry 1995; 34:8235-41.

[2] = tested on: Mycobacterium tuberculosis H37Rv; assay: Mycobacterium tuberculosis H37Rv Inhibition Assay (Whole Cell Assay); format: cell-based; conditions: ATCC 25618 / H37Rv, H37Rv strain (ATCC25618), Middlebrook 7H9, six days at 37° C., resazurin fluorescence after 48 hours

T1 sequence (P9WGR1 whole entry, looked up): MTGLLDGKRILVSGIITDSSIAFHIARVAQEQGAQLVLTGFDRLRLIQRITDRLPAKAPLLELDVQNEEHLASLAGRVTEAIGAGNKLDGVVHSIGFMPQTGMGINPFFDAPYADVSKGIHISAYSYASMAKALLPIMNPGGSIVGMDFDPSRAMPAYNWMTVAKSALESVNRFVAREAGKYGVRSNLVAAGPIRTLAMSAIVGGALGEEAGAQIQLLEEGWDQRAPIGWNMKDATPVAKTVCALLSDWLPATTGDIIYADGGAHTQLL

Question: Which IC50 ([1]; IC50 value) does the source give for `O=[N+]([O-])c1ccn(Cc2nnc(Nc3ccn(Cc4c(Cl)cccc4Cl)n3)s2)n1` [Example 47, N-{1-[(2,6-dichlorophenyl)methyl]-1H-pyrazol-3-yl}-5-[(3-nitro-1H-pyrazol-1-yl)methyl]-1,3,4-thiadiazol-2-amine] here?
Answer: < 111 nM

Question: What about the MIC [2] of the same molecule?
Answer: > 10 µM

Question: With `Cc1cc(C(F)(F)F)nn1Cc1nnc(Nc2ccn(Cc3ccccc3Cl)n2)s1` [Example 48, N-{1-[(2-chlorophenyl)methyl]-1H-pyrazol-3-yl}-5-{[5-methyl-3-(trifluoromethyl)-1H-pyrazol-1-yl]methyl}-1,3,4-thiadiazol-2-amine] as the molecule, how does the IC50 ([1]; IC50 value) read?
Answer: 110 to 220 nM

Question: What about the MIC [2] of the same molecule?
Answer: > 10 µM

Question: For `O=[N+]([O-])c1ccn(Cc2nnc(Nc3ccn(Cc4ccccc4Cl)n3)s2)n1` [Example 49, N-{1-[(2-chlorophenyl)methyl]-1H-pyrazol-3-yl}-5-[(3-nitro-1H-pyrazol-1-yl)methyl]-1,3,4-thiadiazol-2-amine], which IC50 ([1]; read-out: IC50 value) is on record?
Answer: < 120 nM

Question: What about the MIC [2] of the same molecule?
Answer: > 10 µM

Question: Which results are given for `Cc1cc([N+](=O)[O-])nn1Cc1nnc(Nc2ccn(Cc3c(F)cccc3Cl)n2)s1` [Example 50, N-{1-[(2-chloro-6-fluorophenyl)methyl]-1H-pyrazol-3-yl}-5-[(5-methyl-3-nitro-1H-pyrazol-1-yl)methyl]-1,3,4-thiadiazol-2-amine]?
Answer: IC50 ([1]; read-out: IC50 value): < 111 nM; MIC [2]: > 10 µM

Question: For `Cc1cc(C)n(Cc2nnc(Nc3ccn(Cc4c(F)cccc4Cl)n3)s2)n1` [Example 51, N-{1-[(2-chloro-6-fluorophenyl)methyl]-1H-pyrazol-3-yl}-5-[(3,5-dimethyl-1H-pyrazol-1-yl)methyl]-1,3,4-thiadiazol-2-amine], which IC50 ([1]; read-out: IC50 value) is on record?
Answer: < 120 nM

Question: What about the MIC [2] of the same molecule?
Answer: > 10 µM

Question: How did the IC50 ([1]; IC50 value) turn out when `O=[N+]([O-])c1ccn(Cc2nnc(Nc3ccn(Cc4c(F)cccc4Cl)n3)s2)n1` [Example 52, N-{1-[(2-chloro-6-fluorophenyl)methyl]-1H-pyrazol-3-yl}-5-[(3-nitro-1H-pyrazol-1-yl)methyl]-1,3,4-thiadiazol-2-amine] was run?
Answer: 115 to 230 nM

Question: What about the MIC [2] of the same molecule?
Answer: > 10 µM

Question: With `Cc1cc(C)n(Cc2nnc(Nc3ccn(Cc4c(Cl)cccc4Cl)n3)s2)n1` [Example 53, N-{1-[(2,6-dichlorophenyl)methyl]-1H-pyrazol-3-yl}-5-[(3,5-dimethyl-1H-pyrazol-1-yl)methyl]-1,3,4-thiadiazol-2-amine] as the molecule, how does the IC50 ([1]; read-out: IC50 value) read?
Answer: < 115 nM

Question: And the MIC [2]?
Answer: > 10 µM

Question: For `Cc1ccn(C(C)c2nnc(Nc3ccn(Cc4c(Cl)cccc4Cl)n3)s2)n1` (stereo not shown) [Example 54, N-{1-[(2,6-dichlorophenyl)methyl]-1H-pyrazol-3-yl}-5-[1-(3-methyl-1H-pyrazol-1-yl)ethyl]-1,3,4-thiadiazol-2-amine], which IC50 ([1]; read-out: IC50 value) is on record?
Answer: < 115 nM

Question: And the MIC [2]?
Answer: 1 to 4 µM (≈ 0.434 to 1.74 µg/mL)

Question: `Cc1cc(C(F)F)nn1Cc1nnc(Nc2ccn(Cc3c(F)cccc3Cl)n2)s1` [Example 55, N-{1-[(2-chloro-6-fluorophenyl)methyl]-1H-pyrazol-3-yl}-5-([3-(difluoromethyl)-5-methyl-I H-pyrazol-1-yl]methyl}-1,3,4-thiadiazol-2-amine] was tested. Which IC50 ([1]; read-out: IC50 value) did it give?
Answer: < 110 nM

Question: What about the MIC [2] of the same molecule?
Answer: > 10 µM

Question: `Cc1cc(C)n(Cc2nnc(Nc3ccn(Cc4ccccc4Cl)n3)s2)n1` [Example 56, N-{1-[(2-chlorophenyl)methyl]-1H-pyrazol-3-yl}-5-[(3,5-dimethyl-1H-pyrazol-1-yl)methyl]-1,3,4-thiadiazol-2-amine] was tested. Which IC50 ([1]; read-out: IC50 value) did it give?
Answer: < 125 nM

Question: What about the MIC [2] of the same molecule?
Answer: > 10 µM

Question: With `Cc1ccn(Cc2nnc(Nc3ccn(Cc4c(Cl)cccc4Cl)n3)s2)n1` [Example 57, N-{1-[(2,6-dichlorophenyl)methyl]-1H-pyrazol-3-yl}-5-[(3-methyl-1H-pyrazol-1-yl)methyl]-1,3,4-thiadiazol-2-amine] as the molecule, how does the IC50 ([1]; read-out: IC50 value) read?
Answer: < 119 nM

Question: And the MIC [2]?
Answer: > 10 µM

Question: For `Cc1cc([N+](=O)[O-])nn1Cc1nnc(Nc2ccn(Cc3ccccc3Cl)n2)s1` [Example 58, N-{1-[(2-chlorophenyl)methyl]-1H-pyrazol-3-yl}-5-[(5-methyl-3-nitro-1H-pyrazol-1-yl)methyl]-1,3,4-thiadiazol-2-amine], which IC50 ([1]; read-out: IC50 value) is on record?
Answer: 232 to 1160 nM

Question: What about the MIC [2] of the same molecule?
Answer: > 10 µM

Question: What does the source list for `FC(F)(F)c1ccn(Cc2nnc(Nc3ccn(Cc4ccccc4Cl)n3)s2)n1` [Example 59, N-{1-[(2-chlorophenyl)methyl]-1H-pyrazol-3-yl}-5-{[3-(trifluoromethyl)-1H-pyrazol-1-yl]methyl}-1,3,4-thiadiazol-2-amine]?
Answer: IC50 ([1]; read-out: IC50 value): 227 to 1140 nM; MIC [2]: > 10 µM

Question: Which IC50 ([1]; read-out: IC50 value) does the source give for `Cc1ccn(Cc2nnc(Nc3ccn(Cc4ccccc4)n3)s2)n1` [Example 60, 5-[(3-methyl-1H-pyrazol-1-yl)methyl]-N-[1-(phenylmethyl)-1H-pyrazol-3-yl]-1,3,4-thiadiazol-2-amine] here?
Answer: 285 to 1420 nM

Question: And the MIC [2]?
Answer: > 10 µM

Question: What does the source list for `FC(F)(F)c1ccn(Cc2nnc(Nc3ccn(Cc4ccccc4)n3)s2)n1` [Example 61, N-[1-(phenylmethyl)-1H-pyrazol-3-yl]-5-{[3-(trifluoromethyl)-1H-pyrazol-1-yl]methyl}-1,3,4-thiadiazol-2-amine]?
Answer: IC50 ([1]; read-out: IC50 value): 247 to 1230 nM; MIC [2]: > 10 µM

Question: For `Cc1cc([N+](=O)[O-])nn1Cc1nnc(Nc2ccn(Cc3ccccc3)n2)s1` [Example 62, 5-[(5-methyl-3-nitro-1H-pyrazol-1-yl)methyl]-N-[1-(phenylmethyl)-1H-pyrazol-3-yl]-1,3,4-thiadiazol-2-amine], which IC50 ([1]; read-out: IC50 value) is on record?
Answer: 252 to 1260 nM

Question: And the MIC [2]?
Answer: > 10 µM

Question: For `Fc1cccc(Cl)c1Cn1ccc(Nc2nnc(Cn3ccc(C(F)(F)F)n3)s2)n1` [Example 63, N-{1-[(2-chloro-6-fluorophenyl)methyl]-1H-pyrazol-3-yl}-5-{[3-(trifluoromethyl)-1H-pyrazol-1-yl]methyl}-1,3,4-thiadiazol-2-amine], which IC50 ([1]; read-out: IC50 value) is on record?
Answer: 218 to 1090 nM

Question: What about the MIC [2] of the same molecule?
Answer: > 10 µM

Question: What does the source list for `Cc1cc(C)n(Cc2nnc(Nc3ccn(Cc4ccccc4)n3)s2)n1` [Example 64, 5-[(3,5-dimethyl-1H-pyrazol-1-yl)methyl]-N-[1-(phenylmethyl)-1H-pyrazol-3-yl]-1,3,4-thiadiazol-2-amine]?
Answer: IC50 ([1]; read-out: IC50 value): 274 to 1370 nM; MIC [2]: > 10 µM

Question: Which IC50 ([1]; read-out: IC50 value) does the source give for `COC(C)(c1nc(C)cs1)c1nnc(Nc2ccn(Cc3c(F)cccc3Cl)n2)s1` (stereo not shown) [Example 72, N-{1-[(2-chloro-6-fluorophenyl)methyl]-1H-pyrazol-3-yl}-5-[1-(methyloxy)-1-(4-methyl-1,3-thiazol-2-yl)ethyl]-1,3,4-thiadiazol-2-amine] here?
Answer: < 108 nM

Question: What about the MIC [2] of the same molecule?
Answer: 1 to 4 µM (≈ 0.465 to 1.86 µg/mL)

Question: Which IC50 ([1]; IC50 value) does the source give for `COC(c1nc(C)cs1)c1nnc(Nc2ccn(Cc3c(F)cccc3F)n2)s1` (stereo not shown) [Example 73, N-{1-[(2,6-difluorophenyl)methyl]-1H-pyrazol-3-yl}-5-[(methyloxy)(4-methyl-1,3-thiazol-2-yl)methyl]-1,3,4-thiadiazol-2-amine] here?
Answer: 115 to 230 nM

Question: And the MIC [2]?
Answer: > 10 µM

Question: Which results are given for `Cc1csc(C(C)(C)c2nnc(Nc3ccn(Cc4c(F)cccc4Cl)n3)s2)n1` [Example 74, N-{1-[(2-chloro-6-fluorophenyl)methyl]-1H-pyrazol-3-yl}-5-[1-methyl-1-(4-methyl-1,3-thiazol-2-yl)ethyl]-1,3,4-thiadiazol-2-amine]?
Answer: IC50 ([1]; IC50 value): < 111 nM; MIC [2]: 1 to 4 µM (≈ 0.449 to 1.8 µg/mL)

Question: Which IC50 ([1]; IC50 value) does the source give for `Cc1cc(C)n(C(C)c2nnc(Nc3ccn(Cc4ccc(F)cc4)n3)s2)n1` (stereo not shown) [Example 75, 5-[1-(3,5-dimethyl-1H-pyrazol-1-yl)ethyl]-N-{1-[(4-fluorophenyl)methyl]-1H-pyrazol-3-yl}-1,3,4-thiadiazol-2-amine] here?
Answer: 126 to 252 nM

Question: And the MIC [2]?
Answer: > 10 µM

Question: `Cc1ccn(C(C)c2nnc(Nc3ccn(Cc4c(F)cccc4F)n3)s2)n1` (stereo not shown) [Example 76, N-{1-[(2,6-difluorophenyl)methyl]-1H-pyrazol-3-yl}-5-[1-(3-methyl-1H-pyrazol-1-yl)ethyl]-1,3,4-thiadiazol-2-amine] was tested. Which IC50 ([1]; IC50 value) did it give?
Answer: < 125 nM

Question: And the MIC [2]?
Answer: ≤ 1 µM
